These results are taken from patent US20250034139A1, “AMINE COMPOUNDS HAVING ANTI-INFLAMMATORY, ANTIFUNGAL, ANTIPARASITIC, AND ANTICANCER ACTIVITY” (PHARMA CINQ, LLC, priority 2013, published 2025).

Converted amounts (≈) assume the structure as drawn. Read-outs that look alike come from different tables or passages of the source.

For one assay, the system named is THP-1 cells. Nature of the assay: Example D: LPS-triggered THP-1 cell death assay, acute/5-hour and chronic/48-hour. Type of assay: cell-based, Human. Particulars: 10 ng/ml LPS, 0.1 μM test compound, 48 hours. The method, then:
Compounds of the invention were tested at 0.1 μM versus AC in the LPS-triggered THP-1 cell death assay. Both acute/5-hour and chronic/48-hour phases of cell death were assessed. Compounds were screened in batches with DMSO as the negative control and AC as the high activity control.

Another assay deals with Trichophyton rubrum. Nature of the assay: Example J: Trichophyton rubrum growth inhibition, scoring by eye. Type of assay: cell-based. Particulars: Trichophyton rubrum, 144 h; 6 days at 30° C., tested 6 to 40 μM; read-out: MIC, μM (maximum inhibition concentration, scoring by eye). The method, boiled down:
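Filtered T. rubrum suspension from PDA plates (grown 4 days, 30 °C) treated with diluted compounds in triplicate, incubated 6 days at 30 °C. Plates imaged; MIC scored by eye.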

The test system of assay [1] is Aspergillus fumigatus strains. As to the kind of experiment: Example N: MIC and MFC (CLSI) against Aspergillus fumigatus. Type of assay: cell-based. Conditions: for MIC50 / MIC: Aspergillus fumigatus; for MIC: read-out: MIC 100%. On the procedure: (§1) The objective of this study was to determine the antifungal activity of eight experimental compounds against a representative panel of fungal isolates, including Candida albicans, C. glabrata, Cryptococcus neoformans, Trichophyton rubrum, Aspergillus fumigatus, and Rhizopus spp. Antifungal activity was measured by minimum inhibitory concentration (MIC) and minimum fungicidal concentration (MFC).
(§2) Three recent clinical strains of each species, taken from the culture collection at the Center for Medical Mycology, Case Western University, were tested.
(§3) Compounds in powder form were dissolved in DMSO. Serial dilutions of each compound were then prepared in RPMI-1640 in a range of […].
(§4) MIC testing was performed according to the CLSI M27-A3 and M38-A2 standards for the susceptibility testing of yeasts and filamentous fungi, respectively (1, 2). Test isolates were subcultured from frozen slants onto potato dextrose agar plates (Trichophyton rubrum was subcultured onto oatmeal plates for conidia production) and checked for purity. Inocula were then prepared in RPMI-1640 (YNB for Cryptococcus) to a concentration of 0.5-2.5×10^3 colony-forming units (CFU)/ml or 0.4-5×10^4 conidia/ml for yeast and filamentous fungi, respectively.
(§5) MFC determinations were performed according to the modifications previously described by Canton et al. and Ghannoum and Isham. (3, 4) Specifically, the total contents of each clear well from the MIC assay were subcultured onto potato dextrose agar. To avoid antifungal carryover, the aliquots were allowed to soak into the agar and then were streaked for isolation once dry, thus removing the cells from the drug source.

Assay [2] relates to Cryptococcus neoformans strains. Nature of the assay: Example N: MIC and MFC (CLSI) against Cryptococcus neoformans. The assay is classed as cell-based. More on the design: MIC at 50% inhibition: unit not given here. On the procedure:
as §1, §2, §3, §4, §5

The subject of assay [3] is Trichophyton rubrum strains. Nature of the assay: Example N: MIC and MFC (CLSI) against Trichophyton rubrum. Type of assay: cell-based. The method, then:
as §1, §2, §3, §4, §5

In assay [4] the test system is PC3 human prostate cancer cells. As to the kind of experiment: Example S: in vitro anticancer screen, PC-3 cells, Wst1. Type of assay: cell-based. Particulars: Homo sapiens, PC-3; 0.4 μM, approximately 20 hours, Wst1; read-out: PC-3, percent of cancer cell survival relative to vehicle treated cells. The method, boiled down: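 Values give percent survival relative to vehicle, read by Wst1 absorbance (450/630 nm) after 2 h dye incubation, in triplicate. Cells were seeded at 2×10^4/well and treated about 20 h with compound at 0.4, 0.5 or 2.5 μM, depending on compound.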

For assay [5], the system named is 4T1 murine breast cancer cells. Nature of the assay: Example S: in vitro anticancer screen, 4T1 cells, Wst1. Type of assay: cell-based, mouse. Conditions: Mus musculus, 4T1, 18 h, 18 hr, Wst1. In short, it runs like this: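 Read-out is Wst1 absorbance (450 nm, reference 630 nm) after roughly 2 hr dye incubation, giving percent cell survival versus vehicle. Before that, compounds at 1 μM or 5 μM were applied for 18 hr to 4T1 cells plated at 1×10^4 per well.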

Take `CCCCCCOCCCCCCCCNc1ccnc2c(Cl)cccc12` [Compound AX, 8-Chloro-N-[8-(hexyloxy)octyl]quinolin-4-amine]: the “Viable cell percent change, Chronic/48-hour, Mean” value with THP-1 cells turned out to be 18.20%. Moreover, the MIC is 6 µM (≈ 2.35 µg/mL) with Trichophyton rubrum; 0.5 to 1 µg/mL (≈ 1.28 to 2.56 µM) in assay [1] (24 h); 4 to 8 µg/mL (≈ 10.2 to 20.5 µM) in assay [1] (48 h); 0.5 to 4 µg/mL (≈ 1.28 to 10.2 µM) in assay [2] (Cryptococcus neoformans, read-out: MIC 100%, Range, incubated for 72 hrs, three clinical strains); 0.25 to 8 µg/mL (≈ 0.639 to 20.5 µM) in assay [3] (read-out: MIC 100%, Range, incubated for 96 hrs, three clinical strains). Moreover, the MIC50 (usually an inhibitory concentration at the 50% level, which refers to growth in some studies and to a panel of isolates in others) was in the range of 0.12 to 0.25 µg/mL (≈ 0.307 to 0.639 µM) in assay [1] (24 h) and 1 to 4 µg/mL (≈ 2.56 to 10.2 µM) in assay [1] (48 h). Also, the MFC was above 64 µg/mL in assay [1] (range over Aspergillus fumigatus strains, in 48 hr); 4 to 8 µg/mL (≈ 10.2 to 20.5 µM) in assay [2] (Cryptococcus neoformans, three clinical strains); 2 to 8 µg/mL (≈ 5.12 to 20.5 µM) in assay [3] (three clinical strains). The “MIC at 50% inhibition” value in assay [2] is 0.12-2. Besides, in assay [2] (3 isolates), the “cidal activity (MFC within 4 dilutions of the MIC), in words” value is on record as “cidal against all 3 neoformans isolates”. Further, in assay [4], the viability at 0.4 µM came to 31.2%. Moreover, the viability at 1 µM in assay [5] (1 μM, read-out: 4T1 1 μM, percent of cancer cell survival relative to vehicle treated cells) is 24.3%. Further, in assay [5] (5 μM, read-out: 4T1 5 μM, percent of cancer cell survival relative to vehicle treated cells), the viability at 5 µM turned out to be 18%.
